Source: ChEMBL document CHEMBL1123097, “Structure-activity relationship in PAF-acether. 2. rac-1-O-Octadecyl-2-O-acetyl-3-O-[gamma-(dimethylamino)propyl]glycerol ” (J Med Chem, 1985)

Columns and labels:
[1] = organism: Oryctolagus cuniculus; test: In vitro platelet aggregating activity in washed rabbit platelets; type: functional
[2] = tested on: Cavia porcellus; test: Compound was evaluated in anesthetized guinea pigs, for the percentage drop in platelet counts between 2 min before and 1 min after injection at 520ng/kg; type: functional
[3] = tested on: Cavia porcellus; test: Compound was evaluated in anesthetized guinea pigs, for the percentage drop in platelet counts between 2 min before and 1 min after injection at 33 ng/kg; type: functional
[4] = organism: Oryctolagus cuniculus; test: In vitro platelet aggregating activity in washed rabbit platelets; No lysis observed; type: functional
[5] = tested on: Cavia porcellus; test: Compound was evaluated in anesthetized guinea pigs, for the percentage drop in platelet counts between 2 min before and 1 min after injection at 66 ng/kg; type: functional
[6] = tested on: Cavia porcellus; test: Compound was evaluated in anesthetized guinea pigs, for the percentage decrease of bronchoconstrictive activity; type: functional, Lung; set-up: scale not given: the % may be the effect or the level left
[7] = tested on: Cavia porcellus; test: Compound was evaluated in anesthetized guinea pigs, for the percentage drop in platelet counts between 2 min before and 1 min after injection; type: functional

Row | EC50 [1] | EC50 [4] | Structure (SMILES) | Aggregation [2] | Aggregation [3] | Aggregation [5] | Activity [6] | Aggregation [7]
1 | > 4000 nM |  | CCCCCCCCCCCCCCCCCCOCC(O)COCCC[N+](C)(C)C.[OH-] (stereo not given) | 100% |  |  |  | 
2 | 0.057 nM |  | CCCCCCCCCCCCCCCCCCOC[C@H](COP(=O)([O-])OCC[N+](C)(C)C)OC(C)=O |  | 48% |  |  | 
3 |  | 170 nM | CCCCCCCCCCCCCCCCCCOCC(COCCCN(C)C)OC(C)=O.Cl (stereo not given) |  | 0% | 0% |  | 
4 | 0.22 nM |  | CCCCCCCCCCCCCCCCCCOCC(COP(=O)([O-])OCC[N+](C)(C)C)OC(C)=O (racemic) |  |  |  | 100% | 0%
